Compound: CC(=O)Nc1cccc(-n2c(=O)n(C3CC3)c(=O)c3c(Nc4ccc(I)cc4F)n(C)c(=O)c(C)c32)c1 [Trametinib]
Assay: relative viability (nuclei count vs DMSO), 5 days (fraction); higher = more cells survive
Procedure, shortened: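 On vehicle-anchored 1536-well plates, lung cancer cell lines held overnight at 37 °C were pinned with five library-drug doses (not always all listed) spaced by √10. With no medium change over 5 days, they were then fixed, permeabilised and Hoechst-stained in one step and imaged at 4×. MetaXpress counted nuclei, and viability is the median across plates of treated-well over vehicle-well nuclei. Acceptance needed control CV below 25% and at least one doubling.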

Row | Cell Line | relative viability (0.0025 µM) | relative viability (0.007906 µM) | relative viability (0.02 µM, anchor plate) | relative viability (0.025 µM) | relative viability (0.07906 µM) | relative viability (0.25 µM)
1 | NCI-H441 | 0.959 | 0.908 | 0.522 | 0.667 | 0.605 | 0.246
2 | NCI-H520 | 0.86 | 1.06 | 0.735 | 0.924 | 0.949 | 0.623
3 | CAL-12T | 0.904 | 0.723 | 0.369 | 0.503 | 0.51 | 0.343
4 | HCC-827 | 0.999 | 0.958 | 0.508 | 0.92 | 0.738 | 0.609
5 | LC-2-ad | 0.948 | 0.871 | 0.9 | 0.875 | 0.587 | 0.596
6 | NCI-H2170 | 0.96 | 0.955 | 0.94 |  | 0.929 | 0.923
7 | SW 1573 | 0.875 | 0.716 | 0.615 | 0.631 | 0.583 | 0.485
8 | SK-MES-1 | 0.948 | 0.803 | 0.574 | 0.621 | 0.485 | 0.359
9 | NCI-H1648 | 0.776 | 0.864 | 0.505 | 0.809 | 0.541 | 0.455
10 | NCI-H1793 | 0.59 | 0.611 | 0.429 | 0.298 | 0.338 | 0.254
11 | NCI-H1299 | 1.04 | 1.04 |  | 0.897 | 0.818 | 0.584
12 | LCLC-97TM1 | 0.884 | 0.836 | 0.197 | 0.398 | 0.204 | 0.138
13 | NCI-H1915 | 1.05 | 0.737 | 0.3 | 0.54 | 0.423 | 0.353
14 | NCI-H661 | 1.01 | 0.975 | 0.575 | 0.899 | 0.799 | 0.724
15 | NCI-H2405 | 0.944 | 0.946 | 0.665 | 0.553 | 0.535 | 0.556
16 | NCI-H2347 | 0.988 | 0.535 | 0.285 | 0.377 | 0.356 | 0.371
17 | NCI-H1651 | 0.942 | 0.958 | 0.837 | 0.851 | 0.837 | 0.691
18 | H3255 | 0.973 | 0.879 | 0.631 | 0.787 | 0.742 | 0.563
19 | Calu-6 | 0.915 | 0.727 |  | 0.472 | 0.24 | 0.18
20 | SW 900 | 0.713 | 0.811 | 0.808 | 0.751 | 0.771 | 0.19
21 | NCI-H650 | 1.1 | 1.24 | 0.98 | 1.08 | 0.957 | 0.623
22 | NCI-H460 | 0.982 | 0.969 | 0.159 | 0.668 | 0.339 | 0.12
23 | NCI-H2228 | 0.771 | 0.885 | 0.555 | 0.811 | 0.61 | 0.363
24 | NCI-H2085 | 0.913 | 0.823 | 0.504 | 0.754 | 0.783 | 0.729
25 | HCC-366 | 0.959 | 0.969 | 0.373 | 0.796 | 0.669 | 0.395
26 | EPLC-272H | 0.844 | 0.644 | 0.287 | 0.503 | 0.327 | 0.188
27 | 201T | 0.96 | 0.886 | 0.721 | 0.845 | 0.778 | 0.761

Row | Cell Line | relative viability (0.0025 µM) | relative viability (0.007906 µM) | relative viability (0.02 µM, anchor plate) | relative viability (0.025 µM) | relative viability (0.07906 µM) | relative viability (0.25 µM)
28 | NCI-H3122 | 0.909 | 0.701 | 0.231 | 0.465 | 0.361 | 0.281
29 | NCI-H838 | 0.873 | 0.855 | 0.527 | 0.615 | 0.763 | 0.594
30 | NCI-H1755 | 0.886 | 0.879 | 0.773 | 0.83 | 0.885 | 0.842
31 | HCC-15 | 0.795 | 0.541 | 0.389 | 0.544 | 0.325 | 0.28
32 | NCI-H2087 | 0.867 | 0.463 | 0.217 | 0.302 | 0.179 | 0.139
33 | LCLC-103H | 0.92 | 0.869 | 0.672 | 0.814 | 0.697 | 0.685
34 | NCI-H1650 | 0.902 | 0.898 | 0.583 | 0.827 | 0.599 | 0.264
35 | LK-2 | 0.93 | 0.832 | 0.761 | 0.989 | 0.757 | 0.388
36 | NCI-H2342 | 0.958 | 0.915 | 0.847 | 0.554 | 0.749 | 0.855
37 | NCI-H522 | 1.01 | 1.04 | 0.776 | 0.595 | 0.756 | 0.63
38 | EBC-1 | 1 | 0.98 |  | 0.648 | 0.308 | 0.207
39 | ChaGo-K-1 | 0.999 | 0.921 | 0.917 | 0.951 | 0.861 | 0.764
40 | HCC-78 | 0.933 | 0.735 | 0.805 | 0.678 | 0.573 | 0.526
41 | NCI-H1666 | 0.972 | 0.931 | 0.864 | 0.892 | 0.724 | 0.617
42 | IA-LM | 0.764 | 0.464 |  | 0.166 | 0.178 | 0.107
43 | EKVX | 0.852 | 0.766 | 0.364 | 0.583 | 0.491 | 0.395
44 | COR-L 105 | 0.835 | 0.786 | 0.446 | 0.426 | 0.386 | 0.426
45 | NCI-H322M | 0.81 | 0.717 | 0.519 | 0.603 | 0.556 | 0.432
46 | HARA | 0.861 | 0.947 | 0.674 | 0.86 | 0.503 | 0.375
47 | NCI-H1703 | 0.778 | 0.906 |  | 0.825 | 0.875 | 0.684
48 | NCI-H2023 | 0.964 | 0.765 | 0.611 | 0.655 | 0.632 | 0.334
49 | NCI-H1437 | 0.959 | 0.742 | 0.535 | 0.478 | 0.388 | 0.361
50 | BEN | 0.953 | 0.96 | 1.07 | 0.566 | 0.658 | 0.814
51 | LXF-289 | 0.897 | 0.86 | 0.679 | 0.755 | 0.722 | 0.664
52 | NCI-H358 | 0.643 | 0.472 | 0.137 | 0.328 | 0.27 | 0.259
53 | A549 | 0.864 | 0.658 |  | 0.375 | 0.278 | 0.14
54 | NCI-H1993 | 0.698 | 0.732 | 0.54 | 0.548 | 0.693 | 0.628

Row | Cell Line | relative viability (0.0025 µM) | relative viability (0.007906 µM) | relative viability (0.02 µM, anchor plate) | relative viability (0.025 µM) | relative viability (0.07906 µM) | relative viability (0.25 µM)
55 | NCI-H727 | 0.678 | 0.381 | 0.389 | 0.381 | 0.295 | 0.288
56 | LOU-NH91 | 0.926 | 0.923 | 0.799 | 0.761 | 0.8 | 0.366
57 | NCI-H1975 | 0.883 | 0.76 | 0.374 | 0.754 | 0.431 | 0.301
58 | PC-3 [JPC-3] | 1.03 | 0.916 | 0.7 | 0.843 | 0.764 | 0.637
59 | NCI-H2126 | 0.9 | 0.836 | 0.572 | 0.585 | 0.738 | 0.669
60 | LU99A | 0.953 | 0.829 | 0.53 | 0.551 | 0.707 | 0.681
61 | NCI-H23 | 0.876 | 0.831 | 0.417 | 0.349 | 0.433 | 0.264
62 | PC-14 | 1.03 | 0.953 | 0.756 | 0.758 | 0.626 | 0.226
63 | HCC-44 | 0.966 | 0.982 | 1.05 | 1.02 | 0.82 | 0.495
64 | A-427 | 1.04 | 0.96 | 0.77 | 0.66 | 0.68 | 0.35
65 | NCI-H1623 | 0.839 | 0.74 |  | 0.552 | 0.569 | 0.523
66 | NCI-H596 | 0.934 | 0.872 | 0.787 | 0.802 | 0.712 | 0.47
67 | RERF-LC-KJ | 0.969 | 0.926 | 0.873 | 0.885 | 0.848 | 0.757
68 | NCI-H647 | 0.837 | 0.754 | 0.516 | 0.588 | 0.554 | 0.293
69 | NCI-H1734 | 0.959 | 0.92 | 0.717 |  | 0.911 | 0.41
70 | SK-LU-1 | 1.03 | 0.88 | 0.475 | 0.641 | 0.548 | 0.412
71 | NCI-H1563 | 0.983 | 0.782 |  | 0.952 | 0.938 | 0.723
72 | NCI-H1395 | 1.03 | 0.83 | 1.03 | 0.69 | 0.67 | 0.523
73 | COR-L23 | 0.979 | 0.995 | 0.593 | 0.871 | 0.849 | 0.476
74 | EMC-BAC-2 | 1.2 | 1.01 | 0.859 | 0.775 | 0.61 | 0.635
75 | NCI-H1355 | 0.921 | 0.796 | 0.419 | 0.542 | 0.653 | 0.583
76 | NCI-H1792 | 0.844 | 0.856 | 0.475 | 0.477 | 0.387 | 0.281
77 | NCI-H1944 | 0.989 | 0.672 | 0.427 | 0.558 | 0.487 | 0.363
78 | ABC-1 | 0.963 | 0.908 |  | 0.749 | 0.547 | 0.333
79 | HOP-62 | 1 | 0.943 | 0.4 | 0.778 | 0.444 | 0.209
80 | NCI-H2009 | 0.864 | 0.647 | 0.297 | 0.384 | 0.355 | 0.331

Reference: the supplement of paper PMC10307832
